Test results published in PMC6045348 (ACS Omega, 2018).

Target: Ser–Thr PP-1 catalytic subunit (PP1c) (Oryctolagus cuniculus, UniProt P62139)
Experiment: DiFMUP fluorescence phosphatase assay, residual activity […] at […]
Type: biochemical

Chain of Ser–Thr PP-1 catalytic subunit (PP1c) (P62139 2-330): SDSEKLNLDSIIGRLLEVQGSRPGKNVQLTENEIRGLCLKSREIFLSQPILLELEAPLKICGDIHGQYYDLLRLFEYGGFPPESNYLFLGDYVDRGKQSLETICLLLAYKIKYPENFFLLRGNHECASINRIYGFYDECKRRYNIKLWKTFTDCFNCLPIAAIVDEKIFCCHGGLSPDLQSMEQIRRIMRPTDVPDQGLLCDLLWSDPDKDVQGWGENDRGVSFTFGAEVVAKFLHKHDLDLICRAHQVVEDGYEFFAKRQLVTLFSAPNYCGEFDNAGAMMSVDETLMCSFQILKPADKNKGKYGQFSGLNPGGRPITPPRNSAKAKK

## CN1C[C@@H](c2c[nH]c3cc(Br)ccc23)NC[C@@H]1c1c[nH]c2cc(Br)ccc12 [compound 3, dragmacidin A]
  IC50: ~10 µM
